Source: PubChem BioAssay AID330 (DTP/NCI, 2004)
Where “and” joins values, the source holds several entries; their conditions need not be identical. Identical values can stand only once. Inconclusive results and toxic doses are left out.

System: P388 leukemia ip, CD2F1 mice, survival T/C
Experiment: NCI In Vivo Anticancer Drug Screen. Data for tumor model P388 Leukemia (intraperitoneal) in CD2F1 (CDF1) mice
Conditions: endpoint: median survival time, higher = longer survival
Outline: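 Mice carrying the transplanted tumor received test compound or vehicle. Survival was recorded in each group, and the value is the treated-group measurement divided by that of the vehicle-treated control group.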

[1] = dose: 50.0 mg/kg/injection, schedule: Q01DX009 (ip), vehicle: saline with Tween-80
[2] = dose: 50.0 mg/kg/injection, schedule: Q01DX005 (ip), vehicle: saline with Tween-80
[3] = dose: 100.0 mg/kg/injection, schedule: Q01DX005 (ip), vehicle: saline with Tween-80
[4] = dose: 200.0 mg/kg/injection, schedule: Q01DX005 (ip), vehicle: saline with Tween-80
[5] = dose: 60.0 mg/kg/injection, schedule: Q01DX005 (ip), vehicle: Klucel (hydroxypropylcellulose) (HPC)
[6] = dose: 100.0 mg/kg/injection, schedule: Q04DX003 (ip), vehicle: Klucel (hydroxypropylcellulose) (HPC)

In the case of `O=C(O)c1n[nH]c2ccccc2c1=O`, the T/C (dose: 1.56 mg/kg/injection, schedule: Q01DX009 (ip), vehicle: other) is reported as 101 % of control, the T/C (dose: 3.13 mg/kg/injection, schedule: Q01DX009 (ip), vehicle: other) is reported as 105 % of control and the T/C (dose: 6.25 mg/kg/injection, schedule: Q01DX009 (ip), vehicle: other) is reported as 97 % of control. For the same compound, the T/C (dose: 12.5 mg/kg/injection, schedule: Q01DX009 (ip), vehicle: other) was 109 % of control and the T/C (dose: 25.0 mg/kg/injection, schedule: Q01DX009 (ip), vehicle: other) was 110 % of control and 90 % of control.

`O=C(O)/C=N/OCc1cc2c(cc1Cl)OCO2` was tested, and the T/C (dose: 50.0 mg/kg/injection, schedule: Q04DX003 (ip), vehicle: saline sonified) was 100 % of control, the T/C (dose: 100.0 mg/kg/injection, schedule: Q04DX003 (ip), vehicle: saline sonified) was 100 % of control and the T/C (dose: 200.0 mg/kg/injection, schedule: Q04DX003 (ip), vehicle: saline sonified) was 105 % of control.

With `CNC(=O)OCc1c(-c2ccccc2)c(-c2ccccc2)n(-c2ccc(OC)cc2)c1COC(=O)NC` the T/C (dose: 12.5 mg/kg/injection, schedule: Q01DX009 (ip), vehicle: distilled water + Tween-80) was 106 % of control, the T/C (dose: 25.0 mg/kg/injection, schedule: Q01DX009 (ip), vehicle: distilled water + Tween-80) was 103 % of control and 119 % of control and the T/C (dose: 50.0 mg/kg/injection, schedule: Q01DX009 (ip), vehicle: distilled water + Tween-80) was 102 % of control and 119 % of control. For the same compound, the T/C (dose: 100.0 mg/kg/injection, schedule: Q01DX009 (ip), vehicle: distilled water + Tween-80) was 116 % of control and 124 % of control.

With `CC(C)c1ccc(C(=O)O)cc1` the T/C [1] was 103 % of control, the T/C (dose: 100.0 mg/kg/injection, schedule: Q01DX009 (ip), vehicle: saline with Tween-80) was 103 % of control and the T/C (dose: 200.0 mg/kg/injection, schedule: Q01DX009 (ip), vehicle: saline with Tween-80) was 115 % of control.

With `CC12CCC3c4ccc(OC(=O)C56C=CC(=O)C5C5C=CC6CC5)cc4CCC3C1CCC2=O` (stereo not given) the T/C (dose: 25.0 mg/kg/injection, schedule: Q01DX005 (ip), vehicle: distilled water + Tween-80) was 91 % of control, the T/C (dose: 50.0 mg/kg/injection, schedule: Q01DX005 (ip), vehicle: distilled water + Tween-80) was 95 % of control and the T/C (dose: 100.0 mg/kg/injection, schedule: Q01DX005 (ip), vehicle: distilled water + Tween-80) was 87 % of control. For the same compound, the T/C (dose: 200.0 mg/kg/injection, schedule: Q01DX005 (ip), vehicle: distilled water + Tween-80) was 95 % of control.

For `O=C(N=Nc1ccccc1)NC1CCCCC1`, the T/C [2] was 100 % of control, the T/C [3] was 101 % of control and the T/C [4] was 100 % of control.

With `CC(=O)OC1CC2C(C)(C)C(=O)C3OC3C2(C)C2CCC3(C)C(c4ccoc4)C(=O)C4OC43C12C` (stereo not given) the T/C (dose: 0.38 mg/kg/injection, schedule: Q01DX005 (ip), vehicle: Klucel (hydroxypropylcellulose) (HPC)) was 100 % of control, the T/C (dose: 0.75 mg/kg/injection, schedule: Q01DX005 (ip), vehicle: Klucel (hydroxypropylcellulose) (HPC)) was 100 % of control and the T/C (dose: 1.5 mg/kg/injection, schedule: Q01DX005 (ip), vehicle: Klucel (hydroxypropylcellulose) (HPC)) was 100 % of control. For the same compound, the T/C (dose: 3.0 mg/kg/injection, schedule: Q01DX005 (ip), vehicle: Klucel (hydroxypropylcellulose) (HPC)) was 100 % of control and the T/C (dose: 6.0 mg/kg/injection, schedule: Q01DX005 (ip), vehicle: Klucel (hydroxypropylcellulose) (HPC)) was 106 % of control.

In the case of `COC(=O)c1cc2[n+](cc1C(=O)OC)CCc1cc3c(cc1-2)OCO3`, the T/C (dose: 0.63 mg/kg/injection, schedule: Q01DX009 (ip), vehicle: water) is reported as 99 % of control, the T/C (dose: 1.25 mg/kg/injection, schedule: Q01DX009 (ip), vehicle: water) is reported as 97 % of control and the T/C (dose: 2.5 mg/kg/injection, schedule: Q01DX009 (ip), vehicle: water) is reported as 97 % of control. For the same compound, the T/C (dose: 5.0 mg/kg/injection, schedule: Q01DX009 (ip), vehicle: water) was 106 % of control, the T/C (dose: 10.0 mg/kg/injection, schedule: Q01DX009 (ip), vehicle: water) was 99 % of control and the T/C (dose: 20.0 mg/kg/injection, schedule: Q01DX009 (ip), vehicle: water) was 92 % of control.

In the case of `CCCCN(CCCC)C(=S)S`, the T/C (dose: 15.0 mg/kg/injection, schedule: Q01DX005 (ip), vehicle: Klucel (hydroxypropylcellulose) (HPC)) is reported as 105 % of control, the T/C (dose: 30.0 mg/kg/injection, schedule: Q01DX005 (ip), vehicle: Klucel (hydroxypropylcellulose) (HPC)) is reported as 98 % of control and the T/C [5] is reported as 88 % of control.

With `NCCCCC(C(=O)NCC(=O)O)N(C(=O)OCc1ccccc1)C(=O)OCc1ccccc1` (stereo not given) the T/C [2] was 101 % of control, the T/C [3] was 101 % of control and the T/C [4] was 90 % of control.

For `CC(NNC(=S)N(C)C1CCCCC1)c1cc2ccccc2cn1` (stereo not given), the T/C (dose: 6.25 mg/kg/injection, schedule: Q01DX005 (ip), vehicle: saline with Tween-80) was 107 % of control, the T/C (dose: 12.5 mg/kg/injection, schedule: Q01DX005 (ip), vehicle: saline with Tween-80) was 120 % of control and the T/C [2] was 151 % of control and 159 % of control.

In the case of `CCC(=O)c1cc(-c2cc(C(=O)CC)[nH]n2)n[nH]1`, the T/C [5] is reported as 98 % of control and the T/C (dose: 120.0 mg/kg/injection, schedule: Q01DX005 (ip), vehicle: Klucel (hydroxypropylcellulose) (HPC)) is reported as 98 % of control.

In the case of `CCC1C[N+]2(C)CCc3cc(OC)c(OC)cc3C2CC1=O` (stereo not given), the T/C (dose: 12.5 mg/kg/injection, schedule: Q01DX009 (ip), vehicle: saline) is reported as 94 % of control, the T/C (dose: 25.0 mg/kg/injection, schedule: Q01DX009 (ip), vehicle: saline) is reported as 93 % of control and the T/C [1] is reported as 106 % of control. For the same compound, the T/C (dose: 50.0 mg/kg/injection, schedule: Q01DX009 (ip), vehicle: saline) was 100 % of control.

For `Cc1ccc(=O)c2ccsc2c1`, the T/C [6] was 105 % of control and the T/C (dose: 200.0 mg/kg/injection, schedule: Q04DX003 (ip), vehicle: Klucel (hydroxypropylcellulose) (HPC)) was 94 % of control.

With `COc1ccc(Cc2cc(C(C)(C)C)cc(C(C)(C)C)c2OC)cc1` the T/C (dose: 50.0 mg/kg/injection, schedule: Q01DX005 (ip), vehicle: distilled water + alcohol) was 99 % of control, the T/C (dose: 100.0 mg/kg/injection, schedule: Q01DX005 (ip), vehicle: distilled water + alcohol) was 96 % of control and the T/C (dose: 200.0 mg/kg/injection, schedule: Q01DX005 (ip), vehicle: distilled water + alcohol) was 99 % of control.

In the case of `CC1(C)CC(C#N)CC(C)(C)N1O`, the T/C [6] is reported as 100 % of control.

For `[CH3][Sn]([CH3])([Cl])[c]1cc[c]([Sn]([CH3])([CH3])[Cl])cc1`, the T/C (dose: 0.19 mg/kg/injection, schedule: Q01DX005 (ip), vehicle: suspension in saline) was 122 % of control, the T/C (dose: 0.39 mg/kg/injection, schedule: Q01DX005 (ip), vehicle: suspension in saline) was 115 % of control and the T/C (dose: 0.79 mg/kg/injection, schedule: Q01DX005 (ip), vehicle: saline) was 160 % of control. The T/C (dose: 3.12 mg/kg/injection, schedule: Q01DX005 (ip), vehicle: suspension in saline) was 154 % of control.

With `CCOC(=O)c1c(O)c(Cc2ccccc2)c(=O)n2c1[nH]c1cc(C)c(C)cc12` the T/C (dose: 7.5 mg/kg/injection, schedule: Q01DX005 (ip), vehicle: saline with Tween-80) was 100 % of control and the T/C (dose: 15.0 mg/kg/injection, schedule: Q01DX005 (ip), vehicle: saline with Tween-80) was 100 % of control.

With `Clc1ccc(C=Nc2ccc(N=Cc3ccc(Cl)cc3)cc2)cc1` the T/C (dose: 100.0 mg/kg/injection, schedule: Q01DX001 (ip), vehicle: saline with Tween-80) was 90 % of control, the T/C (dose: 200.0 mg/kg/injection, schedule: Q01DX001 (ip), vehicle: saline with Tween-80) was 88 % of control and the T/C (dose: 400.0 mg/kg/injection, schedule: Q01DX001 (ip), vehicle: saline with Tween-80) was 87 % of control.

In the case of `Cc1cc(C)c(O)c(N=Nc2ccccc2)c1`, the T/C (dose: 100.0 mg/kg/injection, schedule: Q04DX003 (ip), vehicle: saline with Tween-80) is reported as 105 % of control, the T/C (dose: 200.0 mg/kg/injection, schedule: Q04DX003 (ip), vehicle: saline with Tween-80) is reported as 105 % of control and the T/C (dose: 400.0 mg/kg/injection, schedule: Q04DX003 (ip), vehicle: saline with Tween-80) is reported as 105 % of control.

In the case of `C=CC(=O)OCCN(CCCC)CCCC`, the T/C (dose: 50.0 mg/kg/injection, schedule: Q01DX005 (ip), vehicle: saline) is reported as 103 % of control, the T/C (dose: 100.0 mg/kg/injection, schedule: Q01DX005 (ip), vehicle: saline) is reported as 95 % of control and the T/C (dose: 200.0 mg/kg/injection, schedule: Q01DX005 (ip), vehicle: saline) is reported as 97 % of control.

For `CCOC(=O)Nc1cc2c(c(N)n1)N=C(c1ccc(N)cc1)CN2`, the T/C (dose: 25.0 mg/kg/injection, schedule: Q01DX001 (ip), vehicle: saline) was 117 % of control.

In the case of `CC1OC(C)(C)OC1C(=O)O` (stereo not given), the T/C (dose: 3.13 mg/kg/injection, schedule: Q01DX009 (ip), vehicle: Klucel (hydroxypropylcellulose) (HPC)) is reported as 89 % of control, the T/C (dose: 6.25 mg/kg/injection, schedule: Q01DX009 (ip), vehicle: Klucel (hydroxypropylcellulose) (HPC)) is reported as 95 % of control and the T/C (dose: 12.5 mg/kg/injection, schedule: Q01DX009 (ip), vehicle: Klucel (hydroxypropylcellulose) (HPC)) is reported as 92 % of control. For the same compound, the T/C (dose: 25.0 mg/kg/injection, schedule: Q01DX009 (ip), vehicle: Klucel (hydroxypropylcellulose) (HPC)) was 89 % of control and the T/C (dose: 50.0 mg/kg/injection, schedule: Q01DX009 (ip), vehicle: Klucel (hydroxypropylcellulose) (HPC)) was 89 % of control.
